# Results published in patent US20030105045A1, “Artificial transcriptional factors and methods of use” (priority 2000, published 2003).
# Experiments:
# [1] = system: GAL4 DNA-binding domain fusion; settings: cited from earlier work
# [2] = system: transcription template with 5 copies of ATF binding sites upstream of minimal HSV thymidine kinase promoter driving CAT reporter gene, BHK-21 cells; experiment: Transient cotransfection CAT reporter assay in BHK-21 cells, template with ATF binding sites; format: cell-based; settings: 50 nM ATFs, 1 microgram plasmid, LipofectAMINE, harvested 48 hours after transfection
# From the text: The ability of ATFs to activate transcription in vivo was examined by transient cotransfection assays in BHK-21 tissue culture cells. As a control template, a reporter construct containing the minimal HSV thymidine kinase promoter driving the expression of chloramphenicol acetyl transferase (CAT) reporter gene was used. The transcription template was constructed by incorporating the oligonucleotide with 5 copies of ATF binding sites in between the HindIII and BamHI restriction sites of the polylinker upstream of the control template promoter (FIG. 6A). The transfection mixture contained 1 microgram of the plasmid DNA and 50 nM ATFs. Transfections were performed by using polycationic lipid LipofectAMINE (Life Technologies). Cells were harvested 48 hours after transfection and CAT assays were performed using FAST CAT (Molecular Probes, Inc.) as substrate, and visualized and quantitated on a Fluorimager (Molecular Dynamics). Each reporter construct shown in FIG. 6A was transfected into cells with and without ATF molecules and the activation signal was measured with standard methods.
# [3] = system: ATF assay template containing five ATF binding sites in the promoter; experiment: In vitro run-off transcription assay with HeLa crude nuclear extract, ATF assay template; format: biochemical; settings: for level/strength of transcriptional activation in words (compared with GAL4-VP16 or basal): ATF assay template
# From the text: (§1) Two 26-base oligonucleotides having the sequence of SEQ. ID NO: 9 and SEQ. ID NO: 10 were annealed and ligated to yield a series of double-stranded DNA fragments containing multiple binding sites for triple-helix formation. A fragment containing 5 copies of the site as shown in the duplex of SEQ ID NO: 9 and SEQ ID NO: 10 was purified by agarose gel electrophoresis and inserted into the HindIII restriction site in the polylinker of an embodiment of the G5E4T series of transcription templates.
# (§2) In FIG. 3A, the control template contains […] five GAL4 and five ATF binding sites incorporated in the promoter at −53 and −155 bp relative to the +1 transcription start site, respectively; and in FIG. 3B the ATF assay template contains five ATF binding sites incorporated at −65 bp.
# The resulting plasmids were linearized by digestion with EcoRI, purified and the linear templates were stored in ultra-pure water at −20° C. The transcription assay was initiated by incubation of 200 ng of linearized transcription templates with ATFs in the binding buffer containing 10 mM Tris pH 8, 40 mM MgCl2 and 100 mM KCl at room temperature for 24 hours. The total volume of binding reaction was 5 microliters. After binding reaction, salt and buffer conditions were adjusted by the addition of 5 microliters of water, 6 microliters of 1×HeLa buffer (20 mM HEPES pH 7.9, 100 mM KCl, 0.2 mM EDTA, 0.5 mM DTT, 20% glycerol) and 5 microliters of HeLa crude nuclear extract (Promega, Madison Wis.). An aliquot of GAL4-VP16 protein (1 microliter total) was added to the control templates and all reactions were pre-incubated for 10 minutes at 30 degrees C. The transcription was initiated by the addition of 1 microliter of a mixture of ribonucleotide triphosphates (ATP, CTP, GTP, 10 mM each) and 0.5 microliters of ^32P-alpha-UTP (NEN, Boston, Mass.). After further incubation at 30° C. for 30 minutes all transcription reactions were terminated by the addition of 100 microliters of stop buffer (0.5 M sodium acetate, 0.2% SDS, 10 mM EDTA, 1 microgram/ml glycogen, 1 microgram/ml Proteinase K). The reactions were vortexed, incubated at 37° C. for 10 minutes, extracted with phenol/chloroform, and precipitated with 250 microliters of ice-cold ethanol. The pellets were dissolved in 20 microliters of standard denaturing formamide/dye mix and were loaded and run on a denaturing 6% polyacrylamide gel.
# (§3) The templates for in vitro transcription were made by inserting 5 direct repeats of a triple helix binding DNA sequence having a sequence of SEQ ID NO: 11 (5′[…]3′) into the Hind III restriction site in the polylinker of the GnE4T series of transcription templates (Lin, Y. S. et al., Cell 5A: 659-664 (1988)). […] The quantitation of signals was performed with Fuji MacBAS software.
# [4] = system: control template containing five GAL4 binding sites; experiment: In vitro run-off transcription assay with HeLa crude nuclear extract, control template; format: biochemical; settings: data not shown
# From the text: as §1, §2
# The resulting plasmids were linearized by digestion with EcoRI, purified and the linear templates were stored in ultra-pure water at −20° C. […]
# as §3
substance,measurement,setting,value
CGSDALDDFDLDML (synthetic composition useful as artificial transcriptional factor) [14-mer peptide derived from VP16],activity when fused to the GAL4 DNA binding domain through recombinant DNA techniques,[1]; Seipel et al.,inactive
"ATF(29): 22-mer TFO (SEQ ID NO:5), 5′ polyglycol linker, crosslinker-coupled 29 amino acid VP16 peptide (SEQ ID NO:8) (chain 1 ttgtggtgggtggggtgtgggt; chain 2 CGSDALDDFDLDMLGSDALDDFDLDMLGS; polyglycol linker, crosslinker conjugation; synthetic composition useful as artificial transcriptional factor)",transcriptional activation above the basal level,[2],5 fold
same,level/strength of transcriptional activation in words (compared with GAL4-VP16 or basal),[3]; FIG. 4 and FIG. 5,comparable to the level that could be obtained with GAL4-VP16
same,level/strength of transcriptional activation in words (compared with GAL4-VP16 or basal),"[3]; FIG. 4 and FIG. 5, listed as ATF","equal to, if not higher than"
same,ATF concentrations at which these levels of activation (30-40 fold) are obtained,[3]; further increase in concentration leads to diminishing activation,2 to 40 nM
same,activation of transcription above basal level,"[3]; linearized template with five ATF binding sites, quantitation of 250 base RNA transcript",30-40 fold
same,activation of transcription from control templates or other templates lacking ATF binding sites,[4],does not activate transcription
CGSDALDDFDLDMLGSDALDDFDLDMLGS (synthetic composition useful as artificial transcriptional factor) [SEQ ID NO: 8],activity retained relative to full-length VP 16 when fused to the GAL4 DNA-binding domain,"[1]; Seipel et al. 1992, Nyanguile et al. 1997",about 70%
